pEC50: −log10 of the molar value.

Usually pEC50 stands for the negative decadic logarithm of the EC50, by convention in mol/L.

Test [1] deals with T1, TMEM16A (Rattus norvegicus, UniProt D4A915).
T1 construct: gene Ano1; full-length (NM_01107564.1), stably expressed in a cell line
T1 sequence (D4A915 1-1105): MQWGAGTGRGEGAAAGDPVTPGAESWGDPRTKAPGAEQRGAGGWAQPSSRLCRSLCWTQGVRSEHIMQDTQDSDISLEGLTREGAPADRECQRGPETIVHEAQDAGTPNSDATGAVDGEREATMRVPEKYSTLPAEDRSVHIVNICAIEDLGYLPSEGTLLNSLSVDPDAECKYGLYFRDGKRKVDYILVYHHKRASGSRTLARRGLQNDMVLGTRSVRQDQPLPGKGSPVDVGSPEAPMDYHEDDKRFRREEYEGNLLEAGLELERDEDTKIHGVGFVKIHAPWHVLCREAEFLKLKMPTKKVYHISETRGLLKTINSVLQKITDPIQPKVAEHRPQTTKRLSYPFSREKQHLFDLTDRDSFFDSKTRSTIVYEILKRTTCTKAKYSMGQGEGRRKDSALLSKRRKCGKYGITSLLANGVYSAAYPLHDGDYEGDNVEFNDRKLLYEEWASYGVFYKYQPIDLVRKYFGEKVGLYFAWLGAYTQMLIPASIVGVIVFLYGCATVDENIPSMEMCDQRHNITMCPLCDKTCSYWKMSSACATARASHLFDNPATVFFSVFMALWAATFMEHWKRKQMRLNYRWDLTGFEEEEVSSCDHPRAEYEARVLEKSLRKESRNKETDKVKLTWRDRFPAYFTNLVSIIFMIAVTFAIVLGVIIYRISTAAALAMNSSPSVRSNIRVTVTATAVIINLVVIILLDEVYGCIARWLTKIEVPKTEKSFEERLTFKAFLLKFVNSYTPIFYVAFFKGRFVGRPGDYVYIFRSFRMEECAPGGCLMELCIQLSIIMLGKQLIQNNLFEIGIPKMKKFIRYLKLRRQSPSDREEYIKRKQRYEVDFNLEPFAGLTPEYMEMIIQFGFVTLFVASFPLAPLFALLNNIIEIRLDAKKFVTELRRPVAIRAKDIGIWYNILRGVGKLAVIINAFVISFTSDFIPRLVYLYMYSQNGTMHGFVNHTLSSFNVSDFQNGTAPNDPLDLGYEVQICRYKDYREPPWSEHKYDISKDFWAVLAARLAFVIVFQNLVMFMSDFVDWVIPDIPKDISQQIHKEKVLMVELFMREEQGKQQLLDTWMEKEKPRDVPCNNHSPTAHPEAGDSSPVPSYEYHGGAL
The test is described as follows: QPatch automated whole-cell patch clamp, recombinant channel (potentiator, maximum […] efficacy). The test is classed as cell-based. For orientation: Patch clamp records ionic current or voltage across a cell membrane.

The target of test [2] is T2, TMEM16A (Mus musculus, UniProt Q8BHY3).
T2 construct: gene Ano1; full-length (NM_178642.5), stably expressed in CHO cells
T2 sequence (Q8BHY3 1-960): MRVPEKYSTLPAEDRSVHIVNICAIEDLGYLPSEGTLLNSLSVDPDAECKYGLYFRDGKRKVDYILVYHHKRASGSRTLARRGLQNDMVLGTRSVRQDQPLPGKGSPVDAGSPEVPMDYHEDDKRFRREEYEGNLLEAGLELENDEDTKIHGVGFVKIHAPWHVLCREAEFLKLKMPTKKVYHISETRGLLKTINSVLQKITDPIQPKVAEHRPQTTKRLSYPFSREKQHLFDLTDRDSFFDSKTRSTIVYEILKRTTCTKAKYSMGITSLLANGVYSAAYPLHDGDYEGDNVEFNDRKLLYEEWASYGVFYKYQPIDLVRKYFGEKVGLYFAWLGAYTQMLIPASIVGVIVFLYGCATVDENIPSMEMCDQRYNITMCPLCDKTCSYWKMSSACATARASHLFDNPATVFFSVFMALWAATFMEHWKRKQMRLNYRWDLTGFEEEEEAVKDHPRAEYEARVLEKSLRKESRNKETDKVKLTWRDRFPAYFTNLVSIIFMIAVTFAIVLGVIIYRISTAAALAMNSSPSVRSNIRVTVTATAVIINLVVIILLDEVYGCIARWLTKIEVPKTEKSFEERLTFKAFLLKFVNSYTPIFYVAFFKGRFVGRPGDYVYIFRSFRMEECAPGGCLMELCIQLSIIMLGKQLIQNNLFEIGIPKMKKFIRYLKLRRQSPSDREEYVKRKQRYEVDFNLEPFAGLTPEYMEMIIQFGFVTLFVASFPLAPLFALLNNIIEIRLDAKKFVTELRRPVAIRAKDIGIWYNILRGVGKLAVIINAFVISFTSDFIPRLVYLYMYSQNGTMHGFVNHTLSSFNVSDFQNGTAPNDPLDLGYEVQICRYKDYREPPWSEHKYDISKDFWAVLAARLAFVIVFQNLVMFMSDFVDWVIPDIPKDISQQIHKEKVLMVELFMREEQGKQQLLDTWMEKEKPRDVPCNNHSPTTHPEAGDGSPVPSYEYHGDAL
The description is as above. The test is classed as cell-based.

On to ETX001, for which the pEC50 on TMEM16A [1] is 7.06. For the substance ETX004, the pEC50 at TMEM16A [2] was 7.42.
